Assay results: patent US10428124B2, “Timothy grass allergens and methods and uses for immune response modulation” (LA JOLLA INSTITUTE FOR ALLERGY AND IMMUNOLOGY, priority 2012, dated 2019)

How the values were obtained:
[1] = test system: PBMCs from TG allergic donors; assay: IL-5 ELISPOT of TG extract-expanded PBMCs from TG allergic donors (peptide pools, single peptides, TG extract); format: cell-based, human
Method: Each donor was recruited following Institutional Review Board approval (Federal Wide Assurance number 00000032) and informed consent and assigned a study identification number. Donors were tested for allergen reactivity by skin prick tests to extracts from 32 common allergens. TG allergic donors were identified as having a skin reaction with a wheal of 5 mm in diameter to TG and a clinical history consistent with seasonal grass pollen allergy. Donors that had received specific immunotherapy were excluded. Non-allergic donors were identified as having negative skin prick tests to all allergens and no clinical history of allergy.
PBMCs were isolated by density gradient centrifugation from one unit of blood (˜450 ml) and cryo-preserved as described previously (12). For in vitro expansions, PBMCs were thawed and cultured in RPMI 1640 (Ω Scientific, Tarzana, Calif.) supplemented with 5% human AB serum (Cellgro, Herndon, Va.) at a density of 2×10^6 cells/ml in 24-well plates (BD Biosciences, San Jose, Calif.) and stimulated with TG pollen extract ([…]) (Greer, Lenoir, N.C.). Cells were kept at 37° C., 5% CO2 and additional IL-2 and IL-7 (10 U/ml, eBioscience, San Diego, Calif.) was added every 3 d after initial antigenic stimulation. On day 14, cells were harvested and screened for reactivity against TG-specific peptide pools (16-25 peptides/pool, averaging 20 peptides/pool). On day 17, peptides from positive pools were tested individually to identify the reactive epitopes.
The production of IL-5 from cultured PBMCs in response to antigen stimulation was measured by ELISPOT as described previously (12). Briefly, 1×10^5 cells/well were incubated with peptide, peptide pool or TG extract (10 μg/ml, 5 μg/ml and 50 μg/ml, respectively). After 24 h, cells were removed and plates were incubated with 2 μg/ml biotinylated anti-human IL-5 Ab (Mabtech) at 37° C. After 2 h, plates were washed and avidin-peroxidase-complex was added (Vector Laboratories, Burlingame, Calif.) for 1 h at RT. Peroxidase-conjugated spots were developed with 3-amino-9-ethylcarvazole solution (Sigma-Aldrich, St. Louis, Mo.). Criteria for peptide pool positivity were 100 SFCs/106 PBMCs, p 0.05, and a stimulation index (SI) 2. Criteria for individual peptides were the same except a minimum of 20 SFCs was counted as positive.

[2] = test system: human IgE; assay: 2D gel immunoblot of TG extract with serum pool from 8 TG-allergic donors, IgE reactivity; format: binding; conditions: for Antibody reactvity IgE/IgG: IgE: E− = not IgE reactive
Method: (§1) 2D DIGE (Difference Gel Electrophoresis) analysis. The complete 2D DIGE analysis was performed by Applied Biomics (Hayward, Calif., US). Briefly, TG extract was run on two 2D gels (3-10 pH range, 12% SDS-acrylamide gel), one was Coomassie blue stained, the other was blotted onto a nitrocellulose membrane. The membrane was then incubated with 5% dried milk in PBS/0.05% Tween to block non-specific binding and subsequently probed with a serum pool from 8 TG-allergic individuals at a dilution of 1:250. IgE and IgG binding was detected using goat anti-human IgE and rabbit anti-human IgG (Sigma-Aldrich, St. Louis, Mo.) and visualized using Cy2-conjugated donkey anti-goat IgG and Cy5-conjugated donkey […] IgG antibodies (Biotium, Hayward, Calif.).
(§2) Mass spectral protein identification was performed by Applied Biomics (Hayward, Calif., US). Briefly, spots of interest were selected from the 2D blot and the corresponding spots were identified on the stained SDS gel and cut out, washed several times to remove staining dye and other inhibitory chemicals. The spots were then dried to absorb maximum digestion buffer. Dried 2D gel spots were rehydrated in digestion buffer containing trypsin. Proteins were digested in-gel at 37° C. and then extracted from the gel with TFA extraction buffer. Subsequently the peptides were desalted using C-18 Zip-tips (Millipore) and mixed with CHCA matrix (alpha-cyano-4-hydroxycinnamic acid) and spotted into wells of a MALDI plate. Mass spectra of the peptides in each sample were obtained using an Applied Biosystems Proteomics Analyzer. The spectra were compared to the amino acid sequences encoded by putative ORFs from the de novo assembled TG pollen transcripts. […] The amino acid sequences encoded by these ORFs were clustered using a custom script at a sequence similarity threshold of 90% to group together highly similar protein sequences. These sequences are encoded by different transcripts from the current assembly, which could arise from splice variants, allelic variation between cells of TG pollen, and from gene families with multiple members. Amino acid sequences that form one cluster are assigned one putative protein ID (Table 1).

[3] = test system: human IgG; assay: 2D gel immunoblot of TG extract with serum pool from 8 TG-allergic donors, IgG reactivity; format: binding; conditions: for Antibody reactvity IgE/IgG: IgG: G+ = IgG reactive, G− = not
Method: as §1, §2

[4] = test system: PBMCs from TG allergic donors; assay: IFNg ELISPOT of TG extract-expanded PBMCs from TG allergic donors (single peptides); format: cell-based, human; conditions: for Total response IFNg SFC: TG allergic patients; for Total response IFNg Events: number of positive response events in TG allergic patients
[5] = test system: PBMCs from TG allergic donors; assay: as above; format: cell-based, human; conditions: for Total response IFNg Events: number of positive response events
[6] = test system: PBMCs from TG allergic donors; assay: as above; format: cell-based, human; conditions: T cell recognition in TG allergic patients; for Total response IFNg Events: number of positive events
[7] = test system: PBMCs from TG allergic donors; assay: as above; format: cell-based, human; conditions: T cell recognition in TG allergic patients; for Total response IFNg Events: number of response events
[8] = test system: PBMCs from TG allergic donors; assay: IFNg ELISPOT of TG extract-expanded PBMCs (single peptides); format: cell-based, human; conditions: for Total response IFNg SFC: 15-mer peptide; for Total response IFNg Events: number of positive response events to the 15-mer peptide
[9] = IL-5, number of positive response events
[10] = number of positive response events in TG allergic patients
[11] = E+ / E− part of the cell, reactivity of the parent antigen
[12] = reactivity of the parent antigen (TG protein) from which the peptide is predicted, E+/E−
[13] = G+ / G− part of the cell, reactivity of the parent antigen
[14] = reactivity of the parent antigen (TG protein) from which the peptide is predicted, G+/G−
[15] = T cell recognition in TG allergic patients, number of positive events
[16] = IgE reactivity of the parent TG antigen
[17] = IgG reactivity of the parent TG antigen
[18] = T cell recognition in TG allergic patients, number of response events
[19] = IgE reactivity (E+/E−) of the source antigen of the peptide
[20] = IgG reactivity (G+/G−) of the source antigen of the peptide
[21] = number of positive response events to the 15-mer peptide
[22] = reactivity of the parent antigen
[23] = T cell recognition in TG allergic patients

| Substance | Total response IL-5 Events [1, 9] | Total response IL-5 Events [1, 10] | Antibody reactvity IgE/IgG (IgE part) [2, 11] | Antibody reactivity IgE/IgG: IgE [2, 12] | Antibody reactvity IgE/IgG (IgG part) [3, 13] | Antibody reactivity IgE/IgG: IgG [3, 14] | Total response IFNg Events [4] | Total response IFNg Events [5] | Total response IFNg SFC [5] | other results |
| --- | --- | --- | --- | --- | --- | --- | --- | --- | --- | --- |
| 48269 (YAVGQKIKAYLEAES; Phleum pratense) [Peptide 48269] | 0 | 0 | E− | E− | G+ | G+ | 1 | 1 | 297 SFC | Total response IFNg SFC [4]: 297 SFC |
| 83 (TIVASGIENMKIFTR; Phleum pratense) [Peptide 83] | 0 |  | E+ |  | G+ |  |  | 1 | 293 SFC | Total response IL-5 Events [1, 15]: 0; Antibody reactvity IgE/IgG (IgE part) [2, 16]: E+; Antibody reactvity IgE/IgG (IgG part) [3, 17]: G+; Total response IFNg SFC [6]: 293 SFC; Total response IFNg Events [6]: 1 |
| 4269 (GVIAGLNVLRIINEP; Phleum pratense) [Peptide 4269] | 0 | 0 | E− | E− | G+ | G+ | 1 | 1 | 33 SFC | Total response IFNg SFC [4]: 33 SFC |
| 26138 (KVINDRFGIVEGLMT; Phleum pratense) [Peptide 26138] | 0 |  | E+ |  | G− |  |  | 1 | 37 SFC | Total response IL-5 Events [1, 18]: 0; Antibody reactivity IgE/IgG: IgE [2, 19]: E+; Antibody reactivity IgE/IgG: IgG [3, 20]: G−; Total response IFNg SFC [7]: 37 SFC; Total response IFNg Events [7]: 1 |
| 64111 (KNPLKFDNTYFTELL; Phleum pratense) [Peptide 64111] |  | 1 |  | E− |  | G− | 1 |  |  | Total response IL-5 SFC ([1]; 15-mer peptide): 100 SFC; Total response IL-5 SFC ([1]; TG allergic patients): 100 SFC; Total response IL-5 Events [1, 21]: 1; Antibody reactvity IgE/IgG: IgE [2, 22]: E−; Antibody reactvity IgE/IgG: IgG [3, 22]: G−; Total response IFNg SFC [4]: 47 SFC; Total response IFNg SFC [8]: 47 SFC; Total response IFNg Events [8]: 1 |
| 411 (SSTRGWCSRRRAGRG; Phleum pratense) [Peptide 411] | 0 | 0 | E− | E− | G+ | G+ | 0 | 0 |  |  |
| 375 (EEAASTLPGLSSSTL; Phleum pratense) [Peptide 375] |  |  |  |  |  |  |  |  |  | Total response IL-5 Events [1, 18]: 0; Antibody reactivity IgE/IgG: IgE [2, 19]: E−; Antibody reactivity IgE/IgG: IgG [3, 20]: G+; Total response IFNg Events [7]: 0 |
| 527 (TVSDEYLAAVAKARR; Phleum pratense) [Peptide 527] | 0 |  | E+ |  | G+ |  |  | 1 | 73 SFC | Total response IL-5 Events [1, 15]: 0; Antibody reactvity IgE/IgG (IgE part) [2, 16]: E+; Antibody reactvity IgE/IgG (IgG part) [3, 17]: G+; Total response IFNg SFC [6]: 73 SFC; Total response IFNg Events [6]: 1 |
| 30285 (VFNDDIQGTASVVLA; Phleum pratense) [Peptide 30285] | 1 |  | E+ |  | G− |  |  | 0 |  | Total response IL-5 SFC ([1]; IL-5, total SFC): 67 SFC; Total response IL-5 SFC [1, 23]: 67 SFC; Total response IL-5 Events [1, 18]: 1; Antibody reactivity IgE/IgG: IgE [2, 19]: E+; Antibody reactivity IgE/IgG: IgG [3, 20]: G−; Total response IFNg Events [7]: 0 |
| 6119 (KVSKVLNTYIFLLYL; Phleum pratense) [Peptide 6119] |  | 1 |  | E− |  | G− | 0 |  |  | Total response IL-5 SFC ([1]; 15-mer peptide): 27 SFC; Total response IL-5 SFC ([1]; TG allergic patients): 27 SFC; Total response IL-5 Events [1, 21]: 1; Antibody reactvity IgE/IgG: IgE [2, 22]: E−; Antibody reactvity IgE/IgG: IgG [3, 22]: G−; Total response IFNg Events [8]: 0 |
| 5621 (KIASFLDPDGWKVVL; Phleum pratense) [Peptide 5621] |  | 0 |  | E− |  | G− | 1 |  |  | Total response IL-5 Events [1, 21]: 0; Antibody reactvity IgE/IgG: IgE [2, 22]: E−; Antibody reactvity IgE/IgG: IgG [3, 22]: G−; Total response IFNg SFC [4]: 343 SFC; Total response IFNg SFC [8]: 343 SFC; Total response IFNg Events [8]: 1 |
| 141 (LLGYLLWVVAIRRPR; Phleum pratense) [Peptide 141] | 1 |  | E+ |  | G+ |  |  | 0 |  | Total response IL-5 SFC ([1]; IL-5, total SFC): 110 SFC; Total response IL-5 SFC [1, 23]: 110 SFC; Total response IL-5 Events [1, 15]: 1; Antibody reactvity IgE/IgG (IgE part) [2, 16]: E+; Antibody reactvity IgE/IgG (IgG part) [3, 17]: G+; Total response IFNg Events [6]: 0 |
| 350 (LKDGSTYSFRFSFIV; Phleum pratense) [Peptide 350] | 1 |  | E+ |  | G+ |  |  | 0 |  | Total response IL-5 SFC ([1]; IL-5, total SFC): 20 SFC; Total response IL-5 SFC [1, 23]: 20 SFC; Total response IL-5 Events [1, 15]: 1; Antibody reactvity IgE/IgG (IgE part) [2, 16]: E+; Antibody reactvity IgE/IgG (IgG part) [3, 17]: G+; Total response IFNg Events [6]: 0 |
| 455 (KRPPRCCQDLVVLPL; Phleum pratense) [Peptide 455] |  | 0 |  | E− |  | G+ | 0 |  |  |  |
